From PubChem BioAssay (NCI)
Where “and” joins values, the source holds several entries; their conditions need not be identical. Equal entries are not always repeated.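 Dose response: 5 concentrations. Exposure: 48 h. Format: 96-well plates. Endpoint: linear interpolation; highest concentration if not reached. GI50: concentration for 50% inhibition of growth. The concentration for full growth arrest is given as TGI.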

What was measured:
Assay in all cases: DTP human tumour cell line panel, 48 h
BT-549 breast = tested on: BT-549 breast
EKVX NSCLC = tested on: EKVX NSCLC
HL-60(TB) leukemia = tested on: HL-60(TB) leukemia
HOP-92 NSCLC = tested on: HOP-92 NSCLC
IGROV1 ovarian = tested on: IGROV1 ovarian
MDA-MB-435 = tested on: MDA-MB-435
RPMI-8226 leukemia = tested on: RPMI-8226 leukemia
SF-268 CNS = tested on: SF-268 CNS
SF-539 CNS = tested on: SF-539 CNS
SK-MEL-28 melanoma = tested on: SK-MEL-28 melanoma
NCI/ADR-RES ovarian = tested on: NCI/ADR-RES ovarian

Row | Structure (SMILES) | TGI (BT-549 breast) [µM] | TGI (EKVX NSCLC) | TGI (HL-60(TB) leukemia) [µM] | TGI (HOP-92 NSCLC) | TGI (IGROV1 ovarian) | TGI (MDA-MB-435) [µM] | TGI (RPMI-8226 leukemia) | TGI (SF-268 CNS) [µM] | TGI (SF-539 CNS) | TGI (SK-MEL-28 melanoma) | TGI (NCI/ADR-RES ovarian) [µM] | GI50 (HL-60(TB) leukemia) [µM] | GI50 (IGROV1 ovarian) [µM] | GI50 (MDA-MB-435) [µM] | GI50 (RPMI-8226 leukemia) | GI50 (SF-268 CNS) [µM] | GI50 (SF-539 CNS) [µM]
1 | COc1cccc(C2c3cc4c(cc3OC(Nc3ccccc3)C2C)OCO4)c1OC (centres undefined) | > 100 | > 100 µM | 6.26 | 60.1 µM | > 100 µM | > 100 | 17.8 µM | > 100 | > 100 µM | > 100 µM |  |  |  |  |  |  | 
2 | CC[C@@]1(O)C(=O)OCc2c1cc1n(c2=O)Cc2c-1nc1ccccc1c2/C=N/NC(=O)c1ccc(N)cc1 | > 100 | > 100 µM |  |  |  | > 100 | > 100 µM | > 100 | 0.019 µM | > 100 µM | > 37.8 |  |  |  |  |  | 
3 | COc1ccccc1C1c2cc3c(cc2OC(N2CCOCC2)C1C)OCO3 (centres undefined) |  | 89.6 µM |  |  | 81.7 µM | 24.9 | 45.7 µM | 40.9 | 32 µM | 32.6 µM | 61.6 |  |  |  |  |  | 
4 | NS(=O)(=O)c1ccc(/C=C/c2ccc(O)cc2)cc1 |  | 69.8 µM | > 100 | 39.5 µM | 84.9 µM | > 100 | 39.3 µM | > 100 | 37.7 µM | 78.2 µM | > 100 | 4.35 | 20.2 | 20.3 | 7.09 µM | 31.5 | 7.4
5 | COC(=O)CC1c2ccccc2N2C(=O)Cc3c([nH]c4ccccc34)C12 (centres undefined) | > 100 | > 100 µM |  | > 100 µM | > 100 µM | > 100 | > 100 µM | > 100 |  | > 100 µM | > 100 |  |  |  |  |  | 
6 | COC(=O)CCC(NC(=O)OC(C)(C)C)C(=O)NC(Cc1ccc(NC(=O)CCCC(C)=O)cc1)C(=O)NC(CCC(=O)OC)C(=O)OC (centres undefined) |  | > 100 µM |  | > 100 µM | > 100 µM | > 100 | > 100 µM | > 100 | > 100 µM | > 100 µM | > 100 |  |  |  |  |  | 
7 | O=CN1CCN(C(=O)c2ccc(Cl)c(Cl)c2)C1=S | 33.7 | 31.7 µM | 45.7 |  | 30.9 µM | 31.8 | 7.74 µM | 39.3 | 37 µM | 38.3 µM | > 100 |  |  |  |  |  | 
8 | N#CNC(=NCCc1c[nH]c2ccccc12)Oc1ccccc1 |  | > 100 µM | > 100 |  | > 100 µM |  | > 100 µM | > 100 | > 100 µM | > 100 µM |  |  |  |  |  |  | 
9 | O=C(NNC(=O)c1csc(NC(=S)NC2CCCCC2)n1)c1ccccc1 | 46.5 | 28.4 µM |  |  | 17.7 µM | 33.1 | 69.9 µM | > 100 | 31.6 µM |  | 50.8 |  |  |  |  |  | 
10 | c1ccc2c(c1)OC(N1CCCC1)c1cnc(N3CCOCC3)nc1-2 (centres undefined) | 72.8 | 79.4 µM | > 100 | 55.6 µM |  | > 100 | 74.7 µM | > 100 | > 100 µM | > 100 µM |  |  |  |  |  |  | 
11 | CCOC(=O)C(Cl)(NC(=O)OCc1ccccc1)C(F)(F)F (centres undefined) |  | > 100 µM | > 100 | > 100 µM | > 100 µM | > 100 | > 100 µM | > 100 | > 100 µM | > 100 µM | > 100 |  |  |  |  |  | 
12 | COc1ccc(NC(=S)c2ccoc2C)cc1CC(=O)OC(C)C |  | > 100 µM | 54.5 | 67.9 µM | > 100 µM | > 100 | > 100 µM | > 100 | > 100 µM | > 100 µM | 58.7 |  |  |  |  |  | 
13 | Cc1n(Cc2ccccc2)nc2sc(N)n[n+]12 | > 100 | > 100 µM |  |  | > 100 µM | > 100 | > 100 µM | > 100 | > 100 µM | > 100 µM | > 100 |  |  |  |  |  | 
14 | Cc1cccc(N/C(Sc2ccccc2)=C(/C(Cl)=C(Cl)Cl)[N+](=O)[O-])c1 | 41.8 | 42.7 µM |  |  |  | 34 | > 100 µM | 34.2 | 31.3 µM | 32.4 µM | 39.1 |  |  |  |  |  | 
15 | CC1=C(C)SC(=C2Sc3nc(O)[nH]c(=O)c3S2)S1 | > 100 | > 100 µM |  | > 100 µM | > 100 µM | > 100 | > 100 µM | > 100 | > 100 µM | > 100 µM | > 100 |  |  |  |  |  | 
16 | Cc1cnc2[nH]c(-c3ccc4ccccc4c3)cc(=O)c2c1 | > 100 |  |  |  | > 100 µM |  | > 100 µM | > 100 | 9.07 µM | > 100 µM |  |  |  |  |  |  | 
17 | Cn1c(N)nc(-c2ccc(Cl)cc2)c1SSc1c(-c2ccc(Cl)cc2)nc(N)n1C | 5.19 | 6.47 µM | 2.92 | 3.7 µM | 9.21 µM | 3.54 | 3.3 µM | 7.1 | 3.33 µM | 3.76 µM |  |  |  |  |  |  | 

Row | Structure (SMILES) | TGI (BT-549 breast) [µM] | TGI (EKVX NSCLC) | TGI (HL-60(TB) leukemia) [µM] | TGI (HOP-92 NSCLC) | TGI (IGROV1 ovarian) | TGI (MDA-MB-435) [µM] | TGI (RPMI-8226 leukemia) | TGI (SF-268 CNS) [µM] | TGI (SF-539 CNS) | TGI (SK-MEL-28 melanoma) | TGI (NCI/ADR-RES ovarian) [µM] | GI50 (HL-60(TB) leukemia) [µM] | GI50 (IGROV1 ovarian) [µM] | GI50 (MDA-MB-435) [µM] | GI50 (RPMI-8226 leukemia) | GI50 (SF-268 CNS) [µM] | GI50 (SF-539 CNS) [µM]
18 | CC(=O)OC(C)(C)CCC(=O)[C@](C)(O)[C@H]1[C@H](O)C[C@@]2(C)[C@@H]3CCc4c(cc(OC5OC(CO)C(O)C(O)C5O)c(O)c4C)C3(C)C(=O)C[C@]12C (some centres undefined) | > 100 | > 100 µM |  | > 100 µM | > 100 µM | > 100 |  | > 100 | > 100 µM | > 100 µM | > 100 |  |  |  |  |  | 
19 | CC(Oc1ccc(OCC2CCCCC2)cc1)C(=O)NCc1ccco1 (centres undefined) |  |  | > 100 |  | > 100 µM |  |  | > 100 | 88.1 µM | > 100 µM |  |  |  |  |  |  | 
20 | CC1(C)N=C(C2CCCN2C(=O)OCc2ccccc2)OC1=O (centres undefined) | > 100 |  | > 100 |  | > 100 µM | > 100 | > 100 µM | > 100 | > 100 µM | > 100 µM | > 100 |  |  |  |  |  | 
21 | COc1ccc(-c2c(C#N)c(S)n(NS(=O)(=O)c3ccccc3)c(=O)c2C#N)cc1 | 46 |  | > 100 |  | > 100 µM | > 100 | 98.4 µM | > 100 | 61.6 µM | > 100 µM | > 100 |  |  |  |  |  | 
22 | COc1cc(C2c3cc4c(cc3[C@@H](NCCN3CCOCC3)C3COC(=O)[C@H]23)OCO4)cc(OC)c1O (some centres undefined) |  | 54.4 µM and > 17.5 µM |  | 4.73 µM and 10.4 µM | 22.4 µM and > 17.5 µM |  | 6.58 µM and 9.59 µM | 10.2 | 2.53 µM and 3.58 µM | 16.6 µM and > 17.5 µM |  |  |  |  | 0.855 µM and 1.81 µM |  | 
23 | CCOC(=O)c1nnc2c(C#N)c(-c3ccccc3)c(C)n2c1N | > 100 | > 100 µM |  |  | 66.6 µM | > 100 | 53.9 µM | > 100 | > 100 µM | 73.2 µM | > 100 |  |  |  |  |  | 
24 | CNC1(C(=O)O)CC1 |  | > 100 µM | > 100 | > 100 µM | > 100 µM | > 100 | > 100 µM | > 100 | > 100 µM | > 100 µM | > 100 |  |  |  |  |  | 
25 | c1ccc(CSC2(SCc3ccccc3)CCCCC2)cc1 |  | > 10 µM | > 10 | > 10 µM | > 10 µM |  | > 10 µM | > 10 | > 10 µM | > 10 µM | > 10 |  |  |  |  |  | 
26 | O=C(c1ccccc1)N1C(=S)N(c2ccccn2)C(=Nc2ccccc2)C1=Nc1ccccc1 |  | > 100 µM | 14.1 | 20.8 µM | > 64.1 µM | > 58 | 31.1 µM | > 100 | 44.9 µM | > 100 µM | > 48.3 |  |  |  |  |  | 
27 | Cc1ccc(N/C(SCc2ccccc2)=C(\C(Cl)=C(Cl)Cl)[N+](=O)[O-])c(C)c1 | 36.5 | > 100 µM |  |  |  | 26.1 | > 100 µM | 29.8 | 46.1 µM | 71.6 µM | 56.5 |  |  |  |  |  | 
28 | Cc1ccc(Nc2nc3c(=O)n(C)c(=O)n(C)c3nc2Nc2ccc(C)cc2)cc1 |  | 30 µM | > 100 | 23.5 µM | 29.8 µM | 25.1 | > 100 µM | 32.2 | 26.7 µM | 30.8 µM | 35.1 |  |  |  |  |  | 
29 | CCCCCCCCCCCCCCCCCCOCC(O)COP(=O)(O)OCC1OC(n2ccc(N)nc2=O)C(O)C1O (centres undefined) |  | > 100 µM | 30.8 | 71.8 µM | 28.5 µM | > 100 | 52.9 µM | 49.8 | 34.4 µM | > 100 µM | > 100 |  |  |  |  |  | 
30 | Nc1nc(-c2ccco2)cc(-c2ccc(CO)o2)n1 |  | > 100 µM | > 100 |  | > 100 µM |  | > 100 µM | > 100 | > 100 µM | > 100 µM |  |  |  |  |  |  | 
31 | ON=C(CC(O)(C(F)(F)Cl)C(F)(F)Cl)CC(O)(C(F)(F)Cl)C(F)(F)Cl |  | > 10 µM | > 10 |  | > 10 µM | > 10 | > 10 µM | > 10 | > 10 µM | > 10 µM | > 10 |  |  |  |  |  | 
32 | N#Cc1c(-c2ccccc2)c(CN2CCCCC2)c(=O)n2c1[nH]c1ccccc12 | > 100 |  |  |  | > 100 µM | > 100 |  | > 100 | > 100 µM | > 100 µM | > 100 |  |  |  |  |  | 
33 | CC(=O)CC1=C(OC(C)C)C2(OCCO2)C1O (centres undefined) | > 100 | > 100 µM | > 100 | > 100 µM | > 100 µM | > 100 |  | > 100 | > 100 µM | > 100 µM |  |  |  |  |  |  | 
34 | Cc1ccc(N(C)S(=O)(=O)c2ccccc2[N+](=O)[O-])cc1 | 61.7 | > 100 µM | > 100 |  |  | > 100 | > 100 µM | > 100 | > 100 µM | > 100 µM | > 100 |  |  |  |  |  | 
